Laboratory results: patent US20040110821A1, “GAL3 receptor antagonists for the treatment of affective disorders” (priority 2002, published 2004)

Columns and labels:
human GAL1 receptor = biological target: T1, human GAL1 receptor (Homo sapiens, UniProt P47211); experiment: Radioligand binding at cloned human GAL1 receptor; details: indolones, Table 4, read-out: Ki (nM) GalR 1
T1 construct: expressed in transfected cells
T1 sequence (P47211 1-349): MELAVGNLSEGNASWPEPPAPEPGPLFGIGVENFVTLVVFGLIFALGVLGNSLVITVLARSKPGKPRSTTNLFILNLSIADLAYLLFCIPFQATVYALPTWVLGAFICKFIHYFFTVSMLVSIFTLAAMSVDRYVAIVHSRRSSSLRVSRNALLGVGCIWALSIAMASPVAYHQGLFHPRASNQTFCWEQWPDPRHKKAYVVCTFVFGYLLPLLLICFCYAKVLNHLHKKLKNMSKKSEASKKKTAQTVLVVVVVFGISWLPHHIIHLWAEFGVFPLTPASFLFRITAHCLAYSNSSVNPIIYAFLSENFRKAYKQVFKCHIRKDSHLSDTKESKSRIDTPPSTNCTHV
Protocol: The present invention provides for a method of determining the binding affinity of a GAL3 antagonist, wherein the GAL3 antagonist is dissolved in a “suitable solvent”. A “suitable solvent” means one which permits the measurement of binding affinity of the GAL3 antagonist to the human GAL3 receptor at concentrations less than 1 μM, preferably less than 100 nM. Examples of solvents include, but are not limited to, DMSO, ethanol, N,N-dimethylacetamide, or water. For indolones, the preferred solvent is 3% DMSO (final concentration in the assay). For pyrimidines, the preferred solvent is 1% ethanol/0.09% polypuronic acid F-127 (final concentration in the assay). For any other type of compounds, the preferred solvent is the solvent which permits the measurement of binding affinity of a GAL3 antagonist at the lowest concentration. Once a suitable solvent is ascertained for the binding assay of the human GAL3 receptor, the same solvent is used in assays to determine the binding affinity for instance, at the GAL1 receptor.
The binding properties of the pyrimidines of the present invention were evaluated at the cloned human galanin receptors, GAL1, GAL2, and GAL3, using protocols described herein.
The binding properties of the indolones of the present invention were evaluated at the cloned human galanin receptors, GAL1, GAL2, and GAL3, using protocols described herein.
LM(tk-) cells were stably transfected with the human GAL1 or GAL3 receptor. CHO cells were stably transfected with the human GAL2 receptor.
cDNAs for the human and rat GAL1, and human and rat GAL3 receptors were transfected with a G-418 resistant gene into the mouse fibroblast LM(tk-) cell line by a calcium phosphate transfection method (Cullen, 1967). Stably transfected cells were selected with G-418. Human and rat GAL2 receptors were similarly transfected into CHO cells.
Membranes were harvested from stably transfected LM(tk-) cells. Adherent cells were washed twice in ice-cold phosphate buffered saline (138 mM NaCl, 8.1 mM Na2HPO4, 2.5 mM KCl, 1.2 mM KH2PO4, 0.9 mM CaCl2, 0.5 mM MgCl2, pH 7.4) and lysed by sonication in ice-cold sonication buffer (20 mM Tris-HCl, 5 mM EDTA, pH 7.7). Large particles and debris were cleared by low speed centrifugation (200×g, 5 min, 4° C.). Membranes were collected from the supernatant fraction by centrifugation (32,000×g, 18 min, 4° C.), washed with ice-cold hypotonic buffer, and collected again by centrifugation (32,000×g, 18 min, 4° C.). The final membrane pellet was resuspended by sonication into a small volume of ice-cold binding buffer (−1 ml for every 5 plates: 10 mM NaCl, 20 mM HEPES, 0.22 mM KH2PO4, 1.26 mM CaCl2, 0.81 mM MgSO4, pH 7.4). Protein concentration was measured by the Bradford method (Bradford, 1976) using Bio-Rad Reagent, with bovine serum albumin as a standard. Membranes were held on ice for up to one hour and used fresh, or flash frozen and stored in liquid nitrogen. Membranes were prepared similarly from CHO cells.
Galanin Receptors: Binding assays were performed according to the following published methods: human GAL3 (PCT International Publication No. WO 98/15570), human GAL1 (PCT International Publication No. WO 95/2260) human GAL2 (PCT International Publication No. WO 97/26853).
(§1) Binding data were analyzed using nonlinear regression and statistical techniques available in the GraphPAD Prism package (San Diego, Calif.). Enzymatic assay data were derived from a standard curve of reference compound data.

[1] = biological target: T2, Monoamine Oxidase B (central) (Rattus norvegicus, UniProt P19643); experiment: Central Monoamine Oxidase B Enzyme Assay; type: biochemical; details: rat brain as enzyme source
T2 construct: Rat brain was used as the enzyme source; tissue NovaScreen (Hanover, Md.) performed the assay; host or cells: rat brain
T2 sequence (P19643 whole entry): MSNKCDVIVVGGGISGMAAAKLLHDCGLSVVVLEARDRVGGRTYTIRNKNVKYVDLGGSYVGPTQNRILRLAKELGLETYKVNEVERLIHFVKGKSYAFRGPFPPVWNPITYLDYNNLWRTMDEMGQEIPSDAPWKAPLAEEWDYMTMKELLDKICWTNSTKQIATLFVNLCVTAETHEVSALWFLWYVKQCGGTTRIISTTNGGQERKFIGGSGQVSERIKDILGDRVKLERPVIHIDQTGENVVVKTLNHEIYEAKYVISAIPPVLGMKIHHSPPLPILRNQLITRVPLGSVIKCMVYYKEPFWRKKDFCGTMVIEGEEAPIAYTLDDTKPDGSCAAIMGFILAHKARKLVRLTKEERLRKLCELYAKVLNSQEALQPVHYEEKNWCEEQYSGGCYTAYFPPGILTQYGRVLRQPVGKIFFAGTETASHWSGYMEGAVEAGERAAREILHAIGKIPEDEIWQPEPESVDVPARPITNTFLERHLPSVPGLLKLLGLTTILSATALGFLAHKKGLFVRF
Protocol: The methods to determine activity at monoamine oxidase enzymes (for example, central MAOA and MAOB) are described by Otsuka and Kobayashi, 1964, and were performed by NovaScreen (Hanover, Md.) with the following modifications.
Central Monoamine Oxidase B Enzyme Assay: Rat brain was used as the enzyme source. The assay was performed as described above for central MAOA, except the reference compound was RO 166491 and the subtype selective blocker was 100 nM clorgyline. Also, the substrate ([^14C]Phenylethylamine, 0.056 Ci/mmol) was added and incubated for 10 minutes.
as §1

human 5HT6 receptor = biological target: T3, human 5HT6 receptor (Homo sapiens, UniProt P50406); experiment: Radioligand binding at 5-HT6 receptor; details: read-out: h5HT6 Ki
T3 construct: expressed in transfected cells
T3 sequence (P50406 whole entry): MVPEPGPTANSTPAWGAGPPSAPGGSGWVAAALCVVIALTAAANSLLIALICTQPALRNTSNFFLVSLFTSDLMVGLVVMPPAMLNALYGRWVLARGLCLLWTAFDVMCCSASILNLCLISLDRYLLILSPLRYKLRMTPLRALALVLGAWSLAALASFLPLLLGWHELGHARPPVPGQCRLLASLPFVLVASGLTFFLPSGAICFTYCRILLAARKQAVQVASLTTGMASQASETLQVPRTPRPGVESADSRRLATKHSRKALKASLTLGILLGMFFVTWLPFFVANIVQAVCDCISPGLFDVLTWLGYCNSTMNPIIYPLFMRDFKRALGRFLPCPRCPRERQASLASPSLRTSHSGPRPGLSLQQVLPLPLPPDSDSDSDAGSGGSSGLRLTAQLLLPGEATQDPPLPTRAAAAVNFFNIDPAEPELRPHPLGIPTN
Protocol: Other 5-HT ReceDtors: Other serotonin receptor binding assays were performed according to published methods: rat 5HT2c receptor (Julius et al., 1988); and 5-HT6 (Monsma, et al., 1993). The binding assays using the 5-HT4 receptor were performed according to the procedures described in U.S. Pat. No. 5,766,879, the disclosure of which is hereby incorporated by reference in its entirety into this application.
as §1

[2] = biological target: T4, human α1D adrenergic receptor (Homo sapiens, UniProt P25100); experiment: Binding at human α1D adrenergic receptor; details: read-out: hα1D Ki
T4 construct: expressed in transfected cells
T4 sequence (P25100 whole entry): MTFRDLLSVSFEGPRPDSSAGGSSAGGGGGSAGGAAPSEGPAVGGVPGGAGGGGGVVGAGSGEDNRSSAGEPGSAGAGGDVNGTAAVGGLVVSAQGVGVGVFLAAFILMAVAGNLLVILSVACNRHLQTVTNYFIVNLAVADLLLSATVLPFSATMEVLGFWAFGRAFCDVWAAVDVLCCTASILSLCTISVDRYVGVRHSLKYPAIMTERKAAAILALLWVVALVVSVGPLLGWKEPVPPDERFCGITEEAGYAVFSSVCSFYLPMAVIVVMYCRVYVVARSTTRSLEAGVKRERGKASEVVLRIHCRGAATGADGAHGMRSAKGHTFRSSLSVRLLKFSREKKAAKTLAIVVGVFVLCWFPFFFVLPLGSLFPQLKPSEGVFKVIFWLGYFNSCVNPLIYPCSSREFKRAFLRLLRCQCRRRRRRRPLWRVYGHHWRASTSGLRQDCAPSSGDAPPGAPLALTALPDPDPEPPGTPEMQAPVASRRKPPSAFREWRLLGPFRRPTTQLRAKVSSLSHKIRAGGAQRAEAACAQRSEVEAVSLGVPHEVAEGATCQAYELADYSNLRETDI
Description: (§2) Other receptors: Cell membranes expressing human dopamine D1, D2, D4 and rat D3 receptors were purchased through BioSignal, Inc. (Montreal, Canada). Binding assays using the histamine H1 receptor; dopamine receptors; and α1A, α1B, and α2 adrenergic receptors may be carried out according to the procedures described in U.S. Pat. No. 5,780,485, the disclosure of which is hereby incorporated by reference in its entirety into this application. Binding assays using the dopamine D5 receptor may be carried out according to the procedures described in U.S. Pat. No. 5,882,855, the disclosure of which is hereby incorporated by reference in its entirety into this application. Binding assays for the human α1D adrenergic receptor may be carried out according to the procedures described in U.S. Pat. No. 6,156,518, the disclosure of which is hereby incorporated by reference in its entirety into this application.
as §1

[3] = biological target: T5, human α2C adrenergic receptor (Homo sapiens, UniProt P18825); experiment: Binding at human α2C adrenergic receptor; details: read-out: hα2C Ki
T5 construct: expressed in transfected cells
T5 sequence (P18825 whole entry): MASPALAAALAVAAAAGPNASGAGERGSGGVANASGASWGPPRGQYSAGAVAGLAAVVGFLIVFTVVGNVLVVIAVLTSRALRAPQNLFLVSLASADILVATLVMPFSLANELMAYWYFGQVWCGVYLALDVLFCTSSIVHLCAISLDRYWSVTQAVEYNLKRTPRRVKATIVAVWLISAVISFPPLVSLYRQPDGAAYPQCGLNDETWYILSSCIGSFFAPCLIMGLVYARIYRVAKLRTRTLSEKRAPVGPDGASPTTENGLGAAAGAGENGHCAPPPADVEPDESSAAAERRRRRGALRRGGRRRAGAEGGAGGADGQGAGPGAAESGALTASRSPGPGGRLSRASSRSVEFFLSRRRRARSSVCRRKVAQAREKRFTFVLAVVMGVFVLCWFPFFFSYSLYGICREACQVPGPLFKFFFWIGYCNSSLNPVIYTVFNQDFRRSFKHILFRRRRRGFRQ
Description: as §2, §1

[4] = biological target: T6, human dopamine D1 receptor (Homo sapiens, UniProt P21728); experiment: Binding at human dopamine D1 receptor; details: read-out: hD1 Ki
T6 construct: purchased BioSignal, Inc. (Montreal, Canada)
T6 sequence (P21728 whole entry): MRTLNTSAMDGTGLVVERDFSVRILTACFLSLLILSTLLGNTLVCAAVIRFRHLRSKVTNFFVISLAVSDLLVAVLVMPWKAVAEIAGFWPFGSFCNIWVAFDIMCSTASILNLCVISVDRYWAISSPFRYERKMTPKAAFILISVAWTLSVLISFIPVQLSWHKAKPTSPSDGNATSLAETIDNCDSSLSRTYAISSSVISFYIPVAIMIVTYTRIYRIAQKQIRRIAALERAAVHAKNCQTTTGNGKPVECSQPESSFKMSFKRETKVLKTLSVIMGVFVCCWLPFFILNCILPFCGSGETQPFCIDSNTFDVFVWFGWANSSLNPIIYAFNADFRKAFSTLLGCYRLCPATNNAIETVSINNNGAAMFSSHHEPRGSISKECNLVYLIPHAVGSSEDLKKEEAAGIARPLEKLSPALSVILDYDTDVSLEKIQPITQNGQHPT
Description: as §2, §1

## O=C1C(=Nc2cccc(C(F)(F)F)c2)c2ccccc2N1c1ccccc1 [Example 92, 1-PHENYL-3-[[3-(TRIFLUOROMETHYL)PHENYL]IMINO]-1,3-DIHYDRO-2H-INDOL-2-ONE]
Human GAL1 receptor
  Ki: > 10000 nM
[1]
  % INHIBITION: 1%
Human 5HT6 receptor
  Ki: > 50 µM
[2]
  Ki: 17.2 µM
[3]
  Ki: > 50 µM
[4]
  Ki: > 50 µM
